Data reported in article PMC4894417, “Quantitative High-Throughput Profiling of Environmental Chemicals and Drugs that Modulate Farnesoid X Receptor” (Scientific Reports, 2014).
Entries after “also recorded” stand apart in the source; their conditions may differ. Like-named read-outs stand apart in the source and are kept apart here.

Assays:
[1] = test system: FXR-UAS-bla HEK293T cells; assay: Cell viability assay (CellTiter Glo) in the same well as FXR-bla; settings: for Cell viability IC50: Table 1, mean ± SD of 3 experiments
androgen receptor (AR) = androgen receptor (AR) (Homo sapiens, UniProt P10275); assay: AR-bla reporter gene assay (agonist and antagonist modes)
[2] = molecular target: peroxisome proliferator-activated receptor gamma (PPARγ) (Homo sapiens, UniProt P37231); assay: PPARγ-bla reporter gene assay (agonist and antagonist modes)
vitamin D receptor (VDR) = vitamin D receptor (VDR) (Homo sapiens, UniProt P11473); assay: VDR-bla reporter gene assay (agonist and antagonist modes)
FXR-LBD [3] = molecular target: T1, FXR-LBD (Homo sapiens, UniProt Q96RI1); assay: FXR TR-FRET coactivator recruitment assay, agonist mode; assay type: biochemical; settings: Table 1; coactivator SRC2-2 recruitment
T1 construct: The glutathione S-transferase (GST)-tagged FXR-LBD protein; purchased Life Technologies
T1 sequence (Q96RI1 262-486 limits assumed): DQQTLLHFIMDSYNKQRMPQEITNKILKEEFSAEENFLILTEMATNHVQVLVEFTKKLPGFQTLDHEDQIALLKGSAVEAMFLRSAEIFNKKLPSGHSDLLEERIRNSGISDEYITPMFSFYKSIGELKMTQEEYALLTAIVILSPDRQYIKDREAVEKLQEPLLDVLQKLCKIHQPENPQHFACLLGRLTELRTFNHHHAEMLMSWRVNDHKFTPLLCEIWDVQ

human FXR [4] = molecular target: T2, human FXR (Homo sapiens, UniProt Q96RI1); assay: FXR-bla reporter gene assay, agonist mode (qHTS); settings: for FXR-bla, agonist EC50: Table 1, confirmed compounds, mean ± SD of 3 experiments; for FXR agonist activity: FXR-bla assay
FXR-LBD [5] = molecular target: T1, FXR-LBD; assay: FXR TR-FRET coactivator recruitment assay, antagonist mode (50 μM CDCA); assay type: biochemical
human FXR [6] = molecular target: T2, human FXR; assay: FXR-bla reporter gene assay, antagonist mode (CDCA-induced transactivation); settings: for FXR antagonist activity: FXR-bla assay, CDCA-induced; for FXR-bla, antagonist Efficacy: Table 1, inhibition as percent of positive control (guggulsterone), 50 μM CDCA
[7] = molecular target: estrogen receptor alpha (ERα) (Homo sapiens, UniProt P03372); assay: ERα-bla reporter gene assay (agonist and antagonist modes)
[8] = molecular target: peroxisome proliferator-activated receptor delta (PPARδ) (Homo sapiens, UniProt Q03181); assay: PPARδ-bla reporter gene assay (agonist and antagonist modes)
[9] = Cell viability assay (CellTiter Glo) in the same well as FXR-bla; settings: human, FXR-UAS-bla HEK293T cells
[10] = Table S1, primary screening, 50 µM CDCA
[11] = Table 1, in the presence of 50 μM CDCA
[12] = Table S1, primary screening, CDCA 100%

Chain of peroxisome proliferator-activated receptor delta (PPARδ) (Q03181 with tags, fused parts or gaps limits assumed): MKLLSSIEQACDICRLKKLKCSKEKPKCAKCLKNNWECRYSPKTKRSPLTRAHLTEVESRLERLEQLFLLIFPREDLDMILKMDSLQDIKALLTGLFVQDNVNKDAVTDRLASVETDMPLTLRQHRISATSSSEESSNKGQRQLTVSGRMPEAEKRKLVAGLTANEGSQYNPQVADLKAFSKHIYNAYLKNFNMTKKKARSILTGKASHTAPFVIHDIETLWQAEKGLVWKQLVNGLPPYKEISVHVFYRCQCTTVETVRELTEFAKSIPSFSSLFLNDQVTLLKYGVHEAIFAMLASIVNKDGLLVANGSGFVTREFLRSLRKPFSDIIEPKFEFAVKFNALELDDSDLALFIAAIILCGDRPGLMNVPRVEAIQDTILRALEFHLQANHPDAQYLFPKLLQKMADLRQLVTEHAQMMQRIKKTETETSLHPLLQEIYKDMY
Chain of estrogen receptor alpha (ERα) (P03372 with tags, fused parts or gaps limits assumed): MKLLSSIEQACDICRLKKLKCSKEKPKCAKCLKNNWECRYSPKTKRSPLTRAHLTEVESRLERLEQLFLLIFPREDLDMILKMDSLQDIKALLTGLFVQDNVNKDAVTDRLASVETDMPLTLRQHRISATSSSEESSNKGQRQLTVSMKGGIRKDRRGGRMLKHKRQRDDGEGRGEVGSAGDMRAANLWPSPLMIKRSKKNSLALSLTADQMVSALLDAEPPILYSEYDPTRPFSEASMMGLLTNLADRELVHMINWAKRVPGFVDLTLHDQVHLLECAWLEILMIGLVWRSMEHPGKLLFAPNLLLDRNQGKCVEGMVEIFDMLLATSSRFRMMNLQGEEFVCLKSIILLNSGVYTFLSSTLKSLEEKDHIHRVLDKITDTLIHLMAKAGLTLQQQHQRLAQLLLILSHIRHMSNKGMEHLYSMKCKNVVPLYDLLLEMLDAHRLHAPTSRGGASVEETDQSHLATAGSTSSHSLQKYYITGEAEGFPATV
Chain of vitamin D receptor (VDR) (P11473 with tags, fused parts or gaps limits assumed): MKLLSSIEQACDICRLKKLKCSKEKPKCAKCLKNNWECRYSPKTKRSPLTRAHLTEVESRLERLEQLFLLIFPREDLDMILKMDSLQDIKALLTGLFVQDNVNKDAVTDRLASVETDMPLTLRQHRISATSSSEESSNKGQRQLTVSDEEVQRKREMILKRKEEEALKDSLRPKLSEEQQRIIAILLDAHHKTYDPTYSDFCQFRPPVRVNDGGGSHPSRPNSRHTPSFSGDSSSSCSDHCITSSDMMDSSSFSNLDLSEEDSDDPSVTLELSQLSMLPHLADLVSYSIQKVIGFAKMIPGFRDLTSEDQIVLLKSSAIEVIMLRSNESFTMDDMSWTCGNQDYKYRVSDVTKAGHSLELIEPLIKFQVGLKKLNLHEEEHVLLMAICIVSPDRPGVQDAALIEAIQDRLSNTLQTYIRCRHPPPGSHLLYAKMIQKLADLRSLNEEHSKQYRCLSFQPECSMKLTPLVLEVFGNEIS
Chain of peroxisome proliferator-activated receptor gamma (PPARγ) (P37231 with tags, fused parts or gaps limits assumed): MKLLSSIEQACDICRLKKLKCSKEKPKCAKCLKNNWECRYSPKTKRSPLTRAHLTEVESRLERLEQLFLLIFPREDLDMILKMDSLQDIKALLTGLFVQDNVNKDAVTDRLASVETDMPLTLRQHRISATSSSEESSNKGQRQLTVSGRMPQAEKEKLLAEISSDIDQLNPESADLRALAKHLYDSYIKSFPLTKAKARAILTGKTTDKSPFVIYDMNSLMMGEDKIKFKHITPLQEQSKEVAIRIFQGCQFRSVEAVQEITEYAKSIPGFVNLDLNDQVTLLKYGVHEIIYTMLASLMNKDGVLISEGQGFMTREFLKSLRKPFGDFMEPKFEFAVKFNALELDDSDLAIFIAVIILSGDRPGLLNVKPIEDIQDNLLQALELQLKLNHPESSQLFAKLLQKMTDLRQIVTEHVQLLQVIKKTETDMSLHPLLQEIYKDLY
T2 sequence (Q96RI1 with tags, fused parts or gaps limits assumed): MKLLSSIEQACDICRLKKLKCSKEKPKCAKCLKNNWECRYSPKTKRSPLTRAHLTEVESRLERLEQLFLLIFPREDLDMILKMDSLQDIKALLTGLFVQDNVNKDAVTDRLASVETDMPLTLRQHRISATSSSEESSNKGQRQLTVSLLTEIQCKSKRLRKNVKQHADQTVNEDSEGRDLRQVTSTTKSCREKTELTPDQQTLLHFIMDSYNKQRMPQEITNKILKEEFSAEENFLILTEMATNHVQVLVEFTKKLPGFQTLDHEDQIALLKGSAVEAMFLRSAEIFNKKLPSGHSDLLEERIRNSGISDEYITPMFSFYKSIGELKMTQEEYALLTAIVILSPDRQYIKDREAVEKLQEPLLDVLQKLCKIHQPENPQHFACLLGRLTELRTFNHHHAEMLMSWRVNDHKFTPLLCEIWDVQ
Chain of androgen receptor (AR) (P10275 with tags, fused parts or gaps limits assumed): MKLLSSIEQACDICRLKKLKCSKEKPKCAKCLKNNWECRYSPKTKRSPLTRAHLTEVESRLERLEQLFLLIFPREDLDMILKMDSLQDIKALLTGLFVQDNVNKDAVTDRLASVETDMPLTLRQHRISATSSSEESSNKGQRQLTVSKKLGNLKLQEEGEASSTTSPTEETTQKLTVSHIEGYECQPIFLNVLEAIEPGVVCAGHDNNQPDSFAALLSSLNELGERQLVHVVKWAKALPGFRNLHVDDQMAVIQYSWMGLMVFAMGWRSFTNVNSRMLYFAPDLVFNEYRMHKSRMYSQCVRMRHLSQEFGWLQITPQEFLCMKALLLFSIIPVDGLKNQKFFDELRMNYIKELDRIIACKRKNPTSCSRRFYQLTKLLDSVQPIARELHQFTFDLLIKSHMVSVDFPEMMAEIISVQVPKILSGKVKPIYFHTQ

## COC(=O)Nc1nc2ccccc2[nH]1 [Carbendazole]
[1]; Table S1, primary screening
  Cytotoxicity IC50: Inactive
Androgen receptor (AR)
  AR activity: inhibiting β-lactamase expression
[2]
  PPARγ activity: inhibiting β-lactamase expression
Vitamin D receptor (VDR)
  VDR activity: inhibiting β-lactamase expression

## COc1cc2c(c(OC)c1OC)-c1ccc(OC)c(=O)cc1[C@@H](NC(C)=O)CC2 [Colchicine]
FXR-LBD [3]
  FXR TR-FRET, agonist EC50: Inactive
Human FXR [4]
  FXR-bla, agonist EC50: Inactive
[1]
  Cell viability IC50: Inactive
Androgen receptor (AR)
  AR activity: inhibiting β-lactamase expression
FXR-LBD [5]
  IC50: 0.03 µM
[2]
  PPARγ activity: inhibiting β-lactamase expression
Human FXR [6]
  FXR antagonist Efficacy: 55 ± 11%
  FXR antagonist activity: inhibiting β-lactamase expression
Human FXR [6]; FXR-bla, antagonist IC50
  IC50: 0.03 µM
Human FXR [6]; IC50, FXR-bla antagonist mode, Figure 4, primary screen
  IC50: 0.011 µM
Vitamin D receptor (VDR)
  VDR activity: inhibiting β-lactamase expression
[7]
  ERα activity: antagonized

## COc1cccc2c1C(=O)c1c(O)c3c(c(O)c1C2=O)C[C@@](O)(C(C)=O)C[C@@H]3O[C@H]1C[C@H](N)[C@H](O)[C@H](C)O1 [Daunorubicin]
[8]
  PPARδ activity: antagonist response
[2]
  PPARγ activity: antagonist response
Vitamin D receptor (VDR)
  VDR activity: antagonist response

## COc1cccc2c1C(=O)c1c(O)c3c(c(O)c1C2=O)C[C@@](O)(C(=O)CO)C[C@@H]3O[C@H]1C[C@H](N)[C@H](O)[C@H](C)O1 [Doxorubicin]
[1]
  Cell viability IC50: Inactive
[8]
  PPARδ activity: antagonist response
[2]
  PPARγ activity: antagonist response
Vitamin D receptor (VDR)
  VDR activity: antagonist response
[7]
  ERα activity: mixed agonist/antagonist response

## CCOC(=O)C1=C(C)NC(C)=C(C(=O)OC)C1c1cccc(Cl)c1Cl (stereo not shown) [Felodipine]
[8]
  PPARδ activity: activated

## COC1=CC(=O)C[C@@H](C)[C@]12Oc1c(Cl)c(OC)cc(OC)c1C2=O [Griseofulvin]
Human FXR [4]; Table S1, primary screening
  FXR agonist mode EC50: Inactive
[1]; Table S1, primary screening
  Cytotoxicity IC50: Inactive
[2]
  PPARγ activity: inhibiting β-lactamase expression
Human FXR [6]
  IC50: 42.3 ± 17.3 µM
  FXR antagonist activity: antagonistic effects; also recorded: inhibiting β-lactamase expression
Human FXR [6]; [10]
  FXR antagonist mode Efficacy: 42 ± 7%
Vitamin D receptor (VDR)
  VDR activity: inhibiting β-lactamase expression
[7]
  ERα activity: antagonized

## CC(=O)[C@]1(O)Cc2c(O)c3c(c(O)c2[C@@H](O[C@H]2C[C@H](N)[C@H](O)[C@H](C)O2)C1)C(=O)c1ccccc1C3=O [Idarubicin]
FXR-LBD [3]
  FXR TR-FRET, agonist EC50: Inactive
Human FXR [4]
  EC50: 1.37 ± 0.38 µM
Human FXR [4]; Table 1, activation as percent of positive control (CDCA 100%), mean ± SD of 3
  FXR-bla, agonist Efficacy: 42 ± 16%
Human FXR [4]; Table S3, FXR-active drugs
  FXR agonist EC50: Inactive
[1]
  Cell viability IC50: Inactive
[8]
  PPARδ activity: antagonist response
Androgen receptor (AR)
  AR activity: mixed agonist/antagonist response
FXR-LBD [5]; [11]
  FXR TR-FRET, antagonist Efficacy: 162 ± 41%
[2]
  PPARγ activity: antagonist response
Human FXR [6]
  FXR-bla, antagonist Efficacy: 107 ± 3%
Human FXR [6]; Table S3, 50 µM CDCA
  FXR antagonist Efficacy: 105 ± 11%
Vitamin D receptor (VDR)
  VDR activity: antagonist response
[7]
  ERα activity: mixed agonist/antagonist response

## CCOC(=O)C1=C(C)NC(C)=C(C(=O)OCC)C1c1ccccc1/C=C/C(=O)OC(C)(C)C [Lacidipine]
Human FXR [4]
  EC50: 23.5 ± 10.1 µM
  FXR agonist activity: activated
Human FXR [4]; [12]
  FXR agonist mode Efficacy: 70 ± 41%
[9]
  IC50 at 16 h: 54.5 ± 39.5 µM
[1]; Table S1, primary screening
  Cytotoxicity Efficacy: 56 ± 39%
[8]
  PPARδ activity: activated
Androgen receptor (AR)
  AR activity: activated
Human FXR [6]
  IC50: 32.3 ± 2.1 µM
Human FXR [6]; [10]
  FXR antagonist mode Efficacy: 55 ± 20%
[7]
  ERα activity: activated

## COC(=O)C1=C(C)NC(COC(N)=O)=C(C(=O)OC(C)C)C1c1cccc(Cl)c1Cl (stereo not shown) [Lemildipine]
[8]
  PPARδ activity: activated
Androgen receptor (AR)
  AR activity: activated
[7]
  ERα activity: activated

## COC(=O)Nc1nc2ccc(C(=O)c3ccccc3)cc2[nH]1 [Mebendazole]
FXR-LBD [3]
  FXR TR-FRET, agonist EC50: Inactive
Human FXR [4]
  FXR-bla, agonist EC50: Inactive
[1]
  Cell viability IC50: Inactive
Androgen receptor (AR)
  AR activity: inhibiting β-lactamase expression
FXR-LBD [5]; [11]
  FXR TR-FRET, antagonist IC50: Inactive
[2]
  PPARγ activity: inhibiting β-lactamase expression
Human FXR [6]
  IC50: 2.19 ± 1.51 µM
  FXR antagonist activity: inhibiting β-lactamase expression
  FXR-bla, antagonist Efficacy: 70 ± 9%
Human FXR [6]; Table S3, 50 µM CDCA
  FXR antagonist Efficacy: 66 ± 12%
Vitamin D receptor (VDR)
  VDR activity: inhibiting β-lactamase expression

## COC(=O)C1=C(C)NC(C)=C(C(=O)OCCN(C)Cc2ccccc2)C1c1cccc([N+](=O)[O-])c1 (stereo not shown) [Nicardipine]
Human FXR [4]
  EC50: 3.64 ± 0.84 µM
  FXR agonist activity: weak FXR agonist activity
Human FXR [4]; [12]
  FXR agonist mode Efficacy: 33 ± 7%
Human FXR [4]; Table S3
  FXR agonist Efficacy: 33 ± 7%
[9]
  EC50 at 16 h: 31.9 ± 15.8 µM
  IC50 at 16 h: 31.9 ± 15.8 µM
[1]; Table S1, primary screening
  Cytotoxicity Efficacy: 125 ± 27%
[1]; Table S3
  Cytotoxicity Efficacy: 125 ± 27%
Human FXR [6]
  IC50: 16.7 ± 5.67 µM
Human FXR [6]; [10]
  FXR antagonist mode Efficacy: 116 ± 10%
Human FXR [6]; Table S3, 50 µM CDCA
  FXR antagonist Efficacy: 116 ± 10%

## COc1cccc2c1C(=O)c1c(O)c3c(c(O)c1C2=O)C[C@@](O)(C(=O)CO)C[C@@H]3O[C@H]1C[C@H](N)[C@H](O[C@@H]2CCCCO2)[C@H](C)O1 [Pirarubicin]
Human FXR [4]
  EC50: 16.9 ± 11 µM
  FXR agonist mode Efficacy: 20 ± 9%
[1]; Table S1, primary screening
  Cytotoxicity IC50: Inactive
[8]
  PPARδ activity: antagonist response
Androgen receptor (AR)
  AR activity: mixed agonist/antagonist response
[2]
  PPARγ activity: antagonist response
Human FXR [6]
  FXR antagonist mode Efficacy: 60 ± 23%
Human FXR [6]; FXR antagonist mode IC50
  IC50: 21.3 ± 15.6 µM
Vitamin D receptor (VDR)
  VDR activity: antagonist response
[7]
  ERα activity: mixed agonist/antagonist response

## COc1cc([C@@H]2c3cc4c(cc3[C@H](O)[C@H]3COC(=O)[C@H]23)OCO4)cc(OC)c1OC [Podofilox]
Androgen receptor (AR)
  AR activity: inhibiting β-lactamase expression
[2]
  PPARγ activity: inhibiting β-lactamase expression
Vitamin D receptor (VDR)
  VDR activity: inhibiting β-lactamase expression

## CCc1c(C(=O)NN2CCCCC2)nn(-c2ccc(Cl)cc2Cl)c1-c1ccc(Br)cc1 [Surinabant]
FXR-LBD [3]
  FXR TR-FRET, agonist EC50: Inactive
Human FXR [4]
  FXR-bla, agonist EC50: Inactive
[9]
  EC50 at 16 h: 34.1 ± 13.5 µM
[1]; Homo sapiens, HEK-293T, read-out: Cell viability IC50
  IC50: 17.1 ± 1.12 µM
[1]; Table S3
  Cytotoxicity Efficacy: 66 ± 17%
FXR-LBD [5]; [11]
  FXR TR-FRET, antagonist Efficacy: 73 ± 1%
Human FXR [6]
  IC50: 1.84 ± 0.77 µM
  FXR-bla, antagonist Efficacy: 86 ± 25%
Human FXR [6]; Table S3, 50 µM CDCA
  FXR antagonist Efficacy: 96 ± 16%
